Results as given in paper PMC6273769, “Screening of Potential Xanthine Oxidase Inhibitors in Gnaphalium hypoleucum DC. by Immobilized Metal Affinity Chromatography and Ultrafiltration-Ultra Performance Liquid Chromatography-Mass Spectrometry” (Molecules, 2016).
Read-outs that look alike come from different tables or passages of the source.

What was measured:
xanthine oxidase [1] = biological target: T1, xanthine oxidase (Bos taurus, UniProt P80457); experiment: XO activity assay (uric acid absorbance at […] nm) with Lineweaver-Burk kinetics (Ki […]); also retained by XO in ultrafiltration UPLC-MS; format: biochemical
T1 construct: gene XDH
T1 sequence (P80457 2-1332): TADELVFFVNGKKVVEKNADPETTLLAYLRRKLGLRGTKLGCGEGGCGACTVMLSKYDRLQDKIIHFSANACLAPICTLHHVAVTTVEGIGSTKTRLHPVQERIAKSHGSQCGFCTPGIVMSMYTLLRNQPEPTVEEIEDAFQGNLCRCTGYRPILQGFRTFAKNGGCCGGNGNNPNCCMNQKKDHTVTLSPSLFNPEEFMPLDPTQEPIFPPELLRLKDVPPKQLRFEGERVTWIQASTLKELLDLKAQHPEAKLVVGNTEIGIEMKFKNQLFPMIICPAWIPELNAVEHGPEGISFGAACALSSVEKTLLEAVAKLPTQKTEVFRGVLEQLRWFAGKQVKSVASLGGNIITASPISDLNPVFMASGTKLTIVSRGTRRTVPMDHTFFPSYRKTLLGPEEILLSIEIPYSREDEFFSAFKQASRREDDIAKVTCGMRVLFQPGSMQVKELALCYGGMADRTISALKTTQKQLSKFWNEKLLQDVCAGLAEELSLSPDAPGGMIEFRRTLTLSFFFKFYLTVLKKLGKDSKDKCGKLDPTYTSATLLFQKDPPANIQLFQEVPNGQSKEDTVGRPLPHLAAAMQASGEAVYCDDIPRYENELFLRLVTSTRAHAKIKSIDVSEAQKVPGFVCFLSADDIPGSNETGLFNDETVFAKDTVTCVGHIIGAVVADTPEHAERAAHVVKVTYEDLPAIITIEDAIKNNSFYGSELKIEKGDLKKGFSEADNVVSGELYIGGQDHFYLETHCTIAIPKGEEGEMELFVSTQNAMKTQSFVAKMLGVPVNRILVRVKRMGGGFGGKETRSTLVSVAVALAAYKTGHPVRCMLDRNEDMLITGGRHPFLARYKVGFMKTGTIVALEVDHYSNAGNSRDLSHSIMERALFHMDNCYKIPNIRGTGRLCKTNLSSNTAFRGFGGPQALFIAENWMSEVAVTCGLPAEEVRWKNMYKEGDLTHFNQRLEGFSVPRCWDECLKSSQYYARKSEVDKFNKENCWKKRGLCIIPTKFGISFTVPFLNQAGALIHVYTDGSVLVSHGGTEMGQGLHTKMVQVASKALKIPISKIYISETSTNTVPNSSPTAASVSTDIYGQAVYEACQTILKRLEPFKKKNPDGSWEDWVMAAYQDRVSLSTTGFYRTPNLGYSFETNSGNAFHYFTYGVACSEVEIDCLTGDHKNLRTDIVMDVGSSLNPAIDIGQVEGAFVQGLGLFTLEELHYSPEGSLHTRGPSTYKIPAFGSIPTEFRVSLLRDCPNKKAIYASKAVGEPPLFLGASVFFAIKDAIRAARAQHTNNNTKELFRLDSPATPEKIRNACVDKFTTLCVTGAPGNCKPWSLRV

xanthine oxidase [2] = biological target: T1, xanthine oxidase; experiment: as above; format: biochemical; remark: listed apart in the source

Structure (SMILES)	IC50 (xanthine oxidase [1]) [nM]	IC50 (xanthine oxidase [2]) [nM]
O=c1cc(-c2ccc(O)c(O)c2)oc2cc(O)cc(O)c12 [luteolin]	1500	–
O=c1cc(-c2ccc(O[C@@H]3O[C@H](CO)[C@@H](O)[C@H](O)[C@H]3O)c(O)c2)oc2cc(O)cc(O)c12 [luteolin-4′-O-glucoside]	–	580
